Reference: PubChem BioAssay (NCI)
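Values below derive from 48-hour exposures of cells grown in 96-well plates, with endpoints linearly interpolated between the two concentrations bracketing the appropriate inhibition level. At the TGI there is no net growth.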

Tests used:
Experiment in all cases: inhibition of tumour cell growth, NCI panel, 48 h
[1] = test system: 786-0 renal
[2] = test system: A498 renal
[3] = test system: A549 NSCLC
[4] = test system: ACHN renal
[5] = test system: CCRF-CEM leukemia
[6] = test system: COLO 205 colon
[7] = test system: DLD-1 colon
[8] = test system: DMS 114 small cell lung
[9] = test system: DMS 273 small cell lung
[10] = test system: EKVX NSCLC
[11] = test system: HCC-2998 colon
[12] = test system: HCT-116 colon
[13] = test system: HCT-15 colon
[14] = test system: HL-60(TB) leukemia
[15] = test system: HOP-62 NSCLC
[16] = test system: HOP-92 NSCLC
[17] = test system: HT29 colon
[18] = test system: IGROV1 ovarian
[19] = test system: K-562 leukemia
[20] = test system: KM20L2 colon
[21] = test system: LOX IMVI melanoma
[22] = test system: LXFL 529 NSCLC
[23] = test system: M14 melanoma
[24] = test system: M19-MEL melanoma
[25] = test system: MALME-3M melanoma
[26] = test system: MOLT-4 leukemia
[27] = test system: NCI-H226 lung
[28] = test system: NCI-H23 lung
[29] = test system: NCI-H460 lung
[30] = test system: NCI-H522 lung
[31] = test system: OVCAR-3 ovarian
[32] = test system: OVCAR-4 ovarian
[33] = test system: OVCAR-5 ovarian
[34] = test system: OVCAR-8 ovarian
[35] = test system: RPMI-8226 leukemia
[36] = test system: RXF 393 renal
[37] = test system: SF-268 CNS
[38] = test system: SF-295 CNS
[39] = test system: SF-539 CNS
[40] = test system: SK-MEL-2 melanoma
[41] = test system: SK-MEL-28 melanoma
[42] = test system: SK-MEL-5 melanoma
[43] = test system: SK-OV-3 ovarian
[44] = test system: SN12C renal
[45] = test system: SNB-19 CNS
[46] = test system: SNB-75 CNS
[47] = test system: SNB-78 CNS
[48] = test system: SR leukemia
[49] = test system: SW-620 colon
[50] = test system: TK-10 renal
[51] = test system: U251 CNS
[52] = test system: UACC-257 melanoma
[53] = test system: UACC-62 melanoma
[54] = test system: UO-31 renal
[55] = test system: XF 498 CNS
[56] = test system: CAKI-1 renal
[57] = test system: HOP-18 NSCLC
[58] = test system: KM12 colon

## CC1(Br)S(=O)(=O)OCCOS1(=O)=O
[1]
  TGI: > 100 µM
[2]
  TGI: > 100 µM
[3]
  TGI: > 100 µM
[4]
  TGI: > 100 µM
[5]
  TGI: > 100 µM
[6]
  TGI: > 100 µM
[7]
  TGI: > 100 µM
[8]
  TGI: > 100 µM
[9]
  TGI: > 100 µM
[10]
  TGI: > 100 µM
[11]
  TGI: > 100 µM
[12]
  TGI: > 100 µM
[13]
  TGI: > 100 µM
[14]
  TGI: > 100 µM
[15]
  TGI: > 100 µM
[16]
  TGI: > 100 µM
[17]
  TGI: > 100 µM
[18]
  TGI: > 100 µM
[19]
  TGI: > 100 µM
[20]
  TGI: > 100 µM
[21]
  TGI: > 100 µM
[22]
  TGI: > 100 µM
[23]
  TGI: > 100 µM
[24]
  TGI: > 100 µM
[25]
  TGI: > 100 µM
[26]
  TGI: > 100 µM
[27]
  TGI: > 100 µM
[28]
  TGI: > 100 µM
[29]
  TGI: > 100 µM
[30]
  TGI: > 100 µM
[31]
  TGI: > 100 µM
[32]
  TGI: > 100 µM
[33]
  TGI: > 100 µM
[34]
  TGI: > 100 µM
[35]
  TGI: > 100 µM
[36]
  TGI: > 100 µM
[37]
  TGI: > 100 µM
[38]
  TGI: > 100 µM
[39]
  TGI: > 100 µM
[40]
  TGI: > 100 µM
[41]
  TGI: > 100 µM
[42]
  TGI: > 100 µM
[43]
  TGI: > 100 µM
[44]
  TGI: > 100 µM
[45]
  TGI: > 100 µM
[46]
  TGI: > 100 µM
[47]
  TGI: > 100 µM
[48]
  TGI: > 100 µM
[49]
  TGI: > 100 µM
[50]
  TGI: > 100 µM
[51]
  TGI: > 100 µM
[52]
  TGI: > 100 µM
[53]
  TGI: > 100 µM
[54]
  TGI: > 100 µM
[55]
  TGI: > 100 µM

## Cc1ccc([S+](c2ccccc2)c2cc(C)ccc2C)cc1 (stereo unspecified)
[1]
  TGI: > 100 µM
[2]
  TGI: 32.1 µM
[3]
  TGI: > 100 µM
[4]
  TGI: > 100 µM
[56]
  TGI: > 100 µM
[5]
  TGI: > 100 µM
[6]
  TGI: 61.2 µM
[7]
  TGI: 19.1 µM
[8]
  TGI: 13.8 µM
[9]
  TGI: 15.3 µM
[10]
  TGI: > 100 µM
[11]
  TGI: 28.5 µM
[12]
  TGI: > 100 µM
[14]
  TGI: 66.5 µM
[57]
  TGI: 26.4 µM
[15]
  TGI: 90.8 µM
[18]
  TGI: 25.3 µM
[19]
  TGI: > 100 µM
[58]
  TGI: > 100 µM
[21]
  TGI: > 100 µM
[23]
  TGI: > 100 µM
[24]
  TGI: > 100 µM
[25]
  TGI: > 100 µM
[26]
  TGI: > 100 µM
[29]
  TGI: > 100 µM
[30]
  TGI: 28.2 µM
[31]
  TGI: > 100 µM
[32]
  TGI: > 100 µM
[34]
  TGI: > 100 µM
[35]
  TGI: > 100 µM
[37]
  TGI: > 100 µM
[38]
  TGI: 69.1 µM
[39]
  TGI: > 100 µM
[42]
  TGI: 3.91 µM
[44]
  TGI: 46.3 µM
[45]
  TGI: > 100 µM
[46]
  TGI: 2.9 µM
[48]
  TGI: > 100 µM
[49]
  TGI: > 100 µM
[52]
  TGI: > 100 µM
[53]
  TGI: > 100 µM
[54]
  TGI: > 100 µM

## COc1ccc2c(c1)CC[C@@H]1C2CC[C@]2(C)C(=O)N(CCN3CCCCC3)C(=O)CC12 (stereo partly specified)
[1]
  TGI: > 100 µM
[2]
  TGI: > 100 µM
[4]
  TGI: > 100 µM
[5]
  TGI: > 100 µM
[6]
  TGI: > 100 µM
[12]
  TGI: > 100 µM
[14]
  TGI: 61.1 µM
[15]
  TGI: > 100 µM
[16]
  TGI: > 100 µM
[17]
  TGI: > 100 µM
[18]
  TGI: > 100 µM
[19]
  TGI: > 100 µM
[58]
  TGI: > 100 µM
[20]
  TGI: > 100 µM
[22]
  TGI: > 100 µM
[23]
  TGI: 48.9 µM
[24]
  TGI: > 100 µM
[25]
  TGI: > 100 µM
[28]
  TGI: > 100 µM
[29]
  TGI: > 100 µM
[30]
  TGI: > 100 µM
[32]
  TGI: > 100 µM
[33]
  TGI: > 100 µM
[35]
  TGI: > 100 µM
[36]
  TGI: 99.2 µM
[37]
  TGI: > 100 µM
[38]
  TGI: > 100 µM
[39]
  TGI: > 100 µM
[40]
  TGI: > 100 µM
[41]
  TGI: > 100 µM
[43]
  TGI: > 100 µM
[45]
  TGI: > 100 µM
[46]
  TGI: > 100 µM
[47]
  TGI: > 100 µM
[48]
  TGI: > 100 µM
[51]
  TGI: > 100 µM
[52]
  TGI: 63.4 µM
[53]
  TGI: 41.7 µM
[54]
  TGI: > 100 µM

## CC(=O)C(CN(C)Cc1ccccc1)C(c1ccccc1)c1c(O)c2ccccc2oc1=O (stereo unspecified)
[1]
  TGI: > 100 µM
[2]
  TGI: > 100 µM
[3]
  TGI: > 100 µM
[4]
  TGI: > 100 µM
[56]
  TGI: > 100 µM
[5]
  TGI: > 100 µM
[6]
  TGI: > 100 µM
[7]
  TGI: > 100 µM
[8]
  TGI: > 100 µM
[9]
  TGI: > 100 µM
[10]
  TGI: > 100 µM
[11]
  TGI: > 100 µM
[12]
  TGI: > 100 µM
[13]
  TGI: > 100 µM
[14]
  TGI: > 100 µM
[15]
  TGI: > 100 µM
[16]
  TGI: > 100 µM
[17]
  TGI: > 100 µM
[18]
  TGI: > 100 µM
[19]
  TGI: > 100 µM
[58]
  TGI: > 100 µM
[20]
  TGI: > 100 µM
[21]
  TGI: > 100 µM
[22]
  TGI: > 100 µM
[23]
  TGI: > 100 µM
[24]
  TGI: > 100 µM
[25]
  TGI: > 100 µM
[26]
  TGI: > 100 µM
[27]
  TGI: 99.5 µM
[28]
  TGI: > 100 µM
[29]
  TGI: > 100 µM
[30]
  TGI: > 100 µM
[32]
  TGI: > 100 µM
[33]
  TGI: > 100 µM
[34]
  TGI: > 100 µM
[35]
  TGI: > 100 µM
[36]
  TGI: > 100 µM
[37]
  TGI: > 100 µM
[38]
  TGI: > 100 µM
[39]
  TGI: > 100 µM
[40]
  TGI: > 100 µM
[41]
  TGI: > 100 µM
[42]
  TGI: > 100 µM
[43]
  TGI: > 100 µM
[44]
  TGI: > 100 µM
[45]
  TGI: 93.2 µM
[46]
  TGI: > 100 µM
[47]
  TGI: > 100 µM
[48]
  TGI: > 100 µM
[49]
  TGI: > 100 µM
[50]
  TGI: > 100 µM
[51]
  TGI: > 100 µM
[52]
  TGI: > 100 µM
[53]
  TGI: > 100 µM
[54]
  TGI: 83.7 µM
